Series [1] has as its system Human large intestine cancer cell strain KM20C. As to the kind of experiment: Anti-tumor test using nude mouse subcutaneous implantation system, peroral administration in an equitoxic dose. The settings on record: peroral once a day for 14 days, FIG. 1; for deletion of tumor: 6 animals per group. It counts as in vivo, BALB/cA Jcl-nu mice. How it is done: Human large intestine cancer cell strain KM20C was subcutaneously subcultured in BALB/cA Jcl-nu mice (CLEA Japan, Inc.), and the resultant cancer tissues were cut into 2 mm dice fragments. Each of the fragments was subcutaneously implanted to a 6-week-old BALB/cA Jcl-nu mouse at the back thereof. On day 15 after the implantation, large and small diameters of the resultant tumor were measured, and the volume of the tumor was calculated through use of the following equation. The mice were grouped (6 animals per group) so that the average tumor volume was common to each group. Vt=½(Vl)×(Vs)^2 (Equation 5) In the equation, Vt represents tumor volume, Vl represents large diameter of tumor, and Vs represents small diameter of tumor.
CNDAC, P-CNDAC, or Compound 19 was dissolved or suspended in 0.5% hydroxypropyl methyl cellulose solution which had been buffered with 100 mM citrate buffer (pH 5.0). From the next day of grouping, the mixture was perorally administered to each mouse once a day for consecutive 14 days in an equitoxic dose.
Large and small diameters of the subcutaneously implanted tumor of each mouse were measured twice a week, and relative tumor volume (RTV) was calculated as an index indicating tumor growth through use of the following equations to evaluate anti-tumor effect of the compound. RTV=Vt1/Vt2 (Equation 6) In the equation, RTV represents ratio of tumor volume, Vt1 represents tumor volume measured on the day of determination, and Vt2 represents tumor volume measured on the day of grouping.

Series [2] has the same test system. As to the kind of experiment: Anti-tumor test using nude mouse subcutaneous implantation system with peroral administration of CNDAC compound. It counts as in vivo, BALB/cA Jcl-nu mice. The settings on record: Mus musculus, sc, 696 h; peroral once a day for 14 days, dose equivalent by mole to 18 mg/kg/day of CNDAC; day 29 after grouping; KM20C subcutaneous implant; read-out: IR (%) tumor growth inhibition rate. As to the method:
Human large intestine cancer cell strain KM20C was subcutaneously subcultured in BALB/cA Jcl-nu mice (CLEA Japan, Inc.), and the resultant cancer tissues were cut into 2 mm dice fragments. Each of the fragments was subcutaneously implanted to a 6-week-old BALB/cA Jcl-nu mouse at the back thereof. On day 14 after the implantation, large and small diameters of the resultant tumor were measured, and the volume of the tumor was calculated by the following equation. The mice were grouped (6 animals per group) so that the groups were roughly equal in terms of average tumor volume. Vt=½(Vl)×(Vs)^2 (Equation 1) In the equation, Vt represents tumor volume, Vl represents large diameter of tumor, and Vs represents small diameter of tumor.
Each CNDAC compound was dissolved or suspended in 0.5% hydroxypropyl methyl cellulose solution which had been buffered with 100 mM citrate buffer (pH 6.0). From the next day after grouping, the mixture was perorally administered to each mouse once a day for consecutive 14 days in a dose which is equivalent, by mole, to 18 mg/kg/day of CNDAC.
On day 29 after the grouping, large and small diameters of the subcutaneously implanted tumor of each mouse were measured, and relative tumor volume (RTV) and inhibition rate (IR) were calculated by the following equations to evaluate anti-tumor effect of the compound. RTV=Vt1/Vt2 (Equation 2) In the equation, RTV represents ratio of tumor volume, Vt1 represents tumor volume measured on the day of determination, and […]. IR(%)=[1−(RTVtest)/(RTVcont)]×100 (Equation 3) In the equation, IR represents tumor growth inhibition rate, RTVtest represents mean RTV value of a drug-administered group, and RTVcont represents mean RTV value of a non-treatment group.

On to `CCCCCCCCCCCCCCCC(=O)Nc1ccn([C@@H]2O[C@H](CO)[C@@H](O)[C@@H]2C#N)c(=O)n1` [P-CNDAC, 4-N-palmitoyl-2′-cyano-2′-deoxy-1-β-D-arabinofuranosylcytosine, reference compound], for which the deletion of tumor entry in series [1] is listed as “no deletion of tumor”.
For the compound `N#C[C@H]1[C@H](O)[C@@H](CO)O[C@H]1n1ccc(N)nc1=O` [CNDAC, 2′-cyano-2′-deoxy-1-β-D-arabinofuranosylcytosine, reference compound], in series [1], the deletion of tumor entry is “no deletion of tumor”. Also, in series [2], the inhibition in vivo at 18 mg/kg/day is 46%.
For the compound `CC(C)C(C)(C)[Si](C)(C)O[C@H]1[C@H](C#N)[C@H](n2ccc(N)nc2=O)O[C@@H]1CO` [Example 19, 3′-O-Dimethylthexylsilyl-2′-cyano-2′-deoxy-1-β-D-arabinofuranosylcytosine], the melting point (usually the temperature, or range, at which the solid turns liquid) is 159 to 161 °C. Moreover, in series [1], the deletion of tumor entry is given as “deletes tumor in three cases in total six cases”; the “change in tumor volume (RTV)” value was “greatly reduces the tumor volume as compared with CNDAC and P-CNDAC”. Also, the inhibition in vivo in series [2] is 89%.

The values are drawn from patent US7825103B2, “Pyrimidine nucleoside compound or its salt” (Taiho Pharmaceutical Co., Ltd., priority 2005, dated 2010).
